Data on 1 compound can be found in ChEMBL document CHEMBL2074018, “Digoxin up-regulates multidrug resistance transporter (MDR1) mRNA and simultaneously down-regulates steroid xenobiotic receptor mRNA” (Biochem Biophys Res Commun, 2003).

In the data set the target is ATP-dependent translocase ABCB1 (Homo sapiens, UniProt P08183). The data set is described as follows: TP_TRANSPORTER: up-regulation of MDR1 mRNA in Caco-2 cells. Type of data set: functional, cell-based.

SMILES strings stand for the structures.

Chain of ATP-dependent translocase ABCB1 (P08183 whole entry): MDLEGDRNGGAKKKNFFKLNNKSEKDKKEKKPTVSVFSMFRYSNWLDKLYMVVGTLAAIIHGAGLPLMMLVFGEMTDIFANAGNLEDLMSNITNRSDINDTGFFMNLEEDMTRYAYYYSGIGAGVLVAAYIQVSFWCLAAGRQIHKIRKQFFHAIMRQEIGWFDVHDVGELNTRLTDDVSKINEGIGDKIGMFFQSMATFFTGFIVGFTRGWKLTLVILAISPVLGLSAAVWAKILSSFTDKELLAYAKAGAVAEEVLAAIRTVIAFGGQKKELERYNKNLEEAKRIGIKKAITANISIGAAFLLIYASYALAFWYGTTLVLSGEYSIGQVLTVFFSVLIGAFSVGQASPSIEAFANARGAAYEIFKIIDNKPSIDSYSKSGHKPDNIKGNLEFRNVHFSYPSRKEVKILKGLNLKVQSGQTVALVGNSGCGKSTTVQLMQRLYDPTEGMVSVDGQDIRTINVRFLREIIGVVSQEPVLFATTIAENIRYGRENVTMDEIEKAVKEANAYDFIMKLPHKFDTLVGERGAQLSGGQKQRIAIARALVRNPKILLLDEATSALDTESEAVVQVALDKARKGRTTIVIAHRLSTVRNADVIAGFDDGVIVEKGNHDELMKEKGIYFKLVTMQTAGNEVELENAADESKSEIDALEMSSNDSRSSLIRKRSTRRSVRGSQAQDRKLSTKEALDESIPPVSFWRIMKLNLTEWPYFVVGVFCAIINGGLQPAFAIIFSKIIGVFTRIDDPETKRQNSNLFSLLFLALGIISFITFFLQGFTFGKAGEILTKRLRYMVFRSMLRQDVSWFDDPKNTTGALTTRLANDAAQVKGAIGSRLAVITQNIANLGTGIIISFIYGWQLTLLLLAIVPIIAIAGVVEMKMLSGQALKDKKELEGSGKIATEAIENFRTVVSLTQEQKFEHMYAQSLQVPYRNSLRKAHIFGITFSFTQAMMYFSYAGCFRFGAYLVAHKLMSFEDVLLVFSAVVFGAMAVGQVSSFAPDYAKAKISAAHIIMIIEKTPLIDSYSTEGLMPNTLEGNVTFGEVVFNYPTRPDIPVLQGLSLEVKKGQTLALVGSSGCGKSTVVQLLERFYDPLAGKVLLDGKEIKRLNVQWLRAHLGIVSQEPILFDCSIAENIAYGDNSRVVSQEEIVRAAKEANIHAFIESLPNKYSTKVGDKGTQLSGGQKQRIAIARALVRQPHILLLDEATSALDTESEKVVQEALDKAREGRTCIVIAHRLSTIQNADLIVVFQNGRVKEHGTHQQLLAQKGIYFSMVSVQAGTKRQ

As to `C[C@H]1O[C@@H](O[C@H]2[C@@H](O)C[C@H](O[C@H]3[C@@H](O)C[C@H](O[C@H]4CC[C@@]5(C)[C@H](CC[C@@H]6[C@@H]5C[C@@H](O)[C@]5(C)[C@@H](C7=CC(=O)OC7)CC[C@]65O)C4)O[C@@H]3C)O[C@@H]2C)C[C@H](O)[C@@H]1O` [DIGOXIN], the Activity result was “inducer [+]”.
